≈ marks a conversion by molar mass, not a printed value.
Experiments:
Test in all cases: MIC on standard strains, standard method of Japan Society of Chemotherapy
Format in all cases: cell-based
[1] = tested on: A. calcoaceticos T59; conditions: read-out: MIC
Protocol: (§1) Antimicrobial activity of the compounds of the present invention were measured using CTM (cefotiam) and FMOX (flomoxef) as control drugs in accordance with the standard method of Japan Society of Chemotherapy. Of the 25 standard strains used in this test, Staphylococcus aureus 167 and Staphylococcus aureus 195 belong to MRSA.
(§2) In these tables, drugs tested are shown by the corresponding examples in which they were synthesized.

[2] = tested on: A. faecalis ATCC 3750; conditions: Alcaligenes faecalis, ATCC3750, A. faecalis ATCC 3750; read-out: MIC
Protocol: as §1, §2

[3] = tested on: B. subtilis ATCC 6633; conditions: Bacillus subtilis, ATCC6633, B. subtilis ATCC 6633; read-out: MIC
Protocol: as §1, §2

[4] = tested on: C. freundii ATCC 8090; conditions: Citrobacter freundii, ATCC8090, C. freundii ATCC 8090; read-out: MIC
Protocol: as §1, §2

[5] = tested on: E. cloacae ATCC 13407; conditions: Enterobacter cloacae, ATCC13407, E. cloacae ATCC 13407; read-out: MIC
Protocol: as §1, §2

[6] = tested on: E. cloacae Nek39; conditions: Enterobacter cloacae, NEK39, E. cloacae Nek39; read-out: MIC
Protocol: as §1, §2

[7] = tested on: E. coli CSH2(RE45); conditions: Escherichia coli
Protocol: as §1, §2

[8] = tested on: E. coli CSH2(RK1); conditions: Escherichia coli
Protocol: as §1, §2

[9] = tested on: E. coli NHIJ JC-2; conditions: Escherichia coli, NHIJJC2
Protocol: as §1, §2

[10] = tested on: K. pneuminiae IFO 3317
Protocol: as §1, §2

[11] = tested on: K. pneuminiae No. 42
Protocol: as §1, §2

[12] = tested on: M. luteus ATCC 9341; conditions: Micrococcus luteus, ATCC9341
Protocol: as §1, §2

[13] = tested on: M. morganii IFO 3848; conditions: Morganella morganii, IFO3848
Protocol: as §1, §2

[14] = tested on: P. aeruginosa AKR17; conditions: Pseudomonas aeruginosa
Protocol: as §1, §2

[15] = tested on: P. aeruginosa NCTC 10490; conditions: Pseudomonas aeruginosa, NCTC10490, P. aeruginosa NCTC 10490; read-out: MIC
Protocol: as §1, §2

[16] = tested on: P. cepacia; conditions: Burkholderia cepacia, read-out: MIC
Protocol: as §1, §2

[17] = tested on: P. mirabilis IFO 3849; conditions: Proteus mirabilis, IFO3849, P. mirabilis IFO 3849; read-out: MIC
Protocol: as §1, §2

[18] = tested on: P. vulugaris OX-19
Protocol: as §1, §2

[19] = tested on: S. aureus 167; conditions: Staphylococcus aureus; S. aureus 167 (MRSA)
Protocol: as §1, §2

[20] = tested on: S. aureus 195; conditions: Staphylococcus aureus; S. aureus 195 (MRSA)
Protocol: as §1, §2

[21] = tested on: S. aureus 209p JC-1; conditions: Staphylococcus aureus, 209P, read-out: MIC
Protocol: as §1, §2

[22] = tested on: S. aureus Smith; conditions: Staphylococcus aureus, read-out: MIC
Protocol: as §1, §2

[23] = tested on: S. epidemidis IAM 1296
Protocol: as §1, §2

[24] = tested on: S. marcescens IAM 1184; conditions: Serratia marcescens, IAM1184, S. marcescens IAM 1184; read-out: MIC
Protocol: as §1, §2

[25] = tested on: S. marcescens No. 16-2; conditions: Serratia marcescens, NO.162
Protocol: as §1, §2

SMILES | MIC [1] [µg/mL] | MIC [2] [µg/mL] | MIC [3] [µg/mL] | MIC [4] [µg/mL] | MIC [5] [µg/mL] | MIC [6] [µg/mL] | MIC [7] [µg/mL] | MIC [8] [µg/mL] | MIC [9] [µg/mL] | MIC [10] [µg/mL] | MIC [11] [µg/mL] | MIC [12] [µg/mL] | MIC [13] [µg/mL] | MIC [14] [µg/mL] | MIC [15] [µg/mL] | MIC [16] [µg/mL] | MIC [17] [µg/mL] | MIC [18] [µg/mL] | MIC [19] [µg/mL] | MIC [20] [µg/mL] | further results
Nc1nc(-c2ccc[n+](CC3=C(C(=O)[O-])N4C(=O)[C@@H](NC(=O)/C(=N\O)c5csc(N)n5)[C@H]4SC3)c2)no1 [Ex. 14, 7β-[2-(2-aminothiazol-4-yl)-2-syn-hydroxyiminoacetamido)-3-[3-(5-amino-1,2,4-oxadiazol-3-yl)pyridinio]methyl-3-cephem-4-carboxylate] | 12.5 (≈ 23 µM) | 3.13 (≈ 5.76 µM) | 0.2 (≈ 0.368 µM) | 0.2 (≈ 0.368 µM) | 3.13 (≈ 5.76 µM) | 100 (≈ 184 µM) | 0.39 (≈ 0.718 µM) | 0.78 (≈ 1.44 µM) | 0.39 (≈ 0.718 µM) | 0.39 (≈ 0.718 µM) | 0.78 (≈ 1.44 µM) | 0.05 (≈ 0.092 µM) | 0.2 (≈ 0.368 µM) | > 100 | 3.13 (≈ 5.76 µM) | > 100 | 0.39 (≈ 0.718 µM) | 0.39 (≈ 0.718 µM) | 12.5 (≈ 23 µM) | 6.25 (≈ 11.5 µM) | MIC [21]: 0.2 µg/mL (≈ 0.368 µM); MIC [22]: 0.39 µg/mL (≈ 0.718 µM); MIC [23]: 0.1 µg/mL (≈ 0.184 µM); MIC [24]: 0.78 µg/mL (≈ 1.44 µM); MIC [25]: > 100 µg/mL
Nc1nnc(-c2cc[n+](CC3=C(C(=O)[O-])N4C(=O)[C@@H](NC(=O)/C(=N\O)c5csc(N)n5)[C@H]4SC3)cc2)o1 [Ex. 15, 7β-[2-(2-aminothiazol-4-yl)-2-syn-hydroxyiminoacetamido]-3-[4-(2-amino-1,3,4-oxadiazol-5-yl)pyridinio]methyl-3-cephem-4-carboxylate] | 12.5 (≈ 23 µM) | 1.56 (≈ 2.87 µM) | 0.39 (≈ 0.718 µM) | 0.2 (≈ 0.368 µM) | 6.25 (≈ 11.5 µM) | 50 (≈ 92 µM) | 0.39 (≈ 0.718 µM) | 0.78 (≈ 1.44 µM) | 0.2 (≈ 0.368 µM) | 0.2 (≈ 0.368 µM) | 0.39 (≈ 0.718 µM) | 0.05 (≈ 0.092 µM) | 0.1 (≈ 0.184 µM) | > 100 | 1.56 (≈ 2.87 µM) | > 100 | 0.2 (≈ 0.368 µM) | 0.2 (≈ 0.368 µM) | 6.25 (≈ 11.5 µM) | 6.25 (≈ 11.5 µM) | MIC [21]: 0.39 µg/mL (≈ 0.718 µM); MIC [22]: 0.39 µg/mL (≈ 0.718 µM); MIC [23]: 0.1 µg/mL (≈ 0.184 µM); MIC [24]: 0.2 µg/mL (≈ 0.368 µM); MIC [25]: 100 µg/mL (≈ 184 µM)
Nc1nc(-c2cc[n+](CC3=C(C(=O)[O-])N4C(=O)[C@@H](NC(=O)/C(=N\O)c5csc(N)n5)[C@H]4SC3)cc2)n[nH]1 [Ex. 16, 7β-[2-(2-aminothiazol-4-yl)-2-syn-hydroxyiminoacetamido]-3-[4-(3-aminotriazol-5-yl)pyridinio]methyl-3-cephem-4-carboxylate] | 12.5 (≈ 23 µM) | 1.56 (≈ 2.88 µM) | 0.2 (≈ 0.369 µM) | 0.2 (≈ 0.369 µM) | 12.5 (≈ 23 µM) | > 100 | 0.2 (≈ 0.369 µM) | 0.78 (≈ 1.44 µM) | 0.1 (≈ 0.184 µM) | 0.1 (≈ 0.184 µM) | 0.39 (≈ 0.719 µM) | 0.025 (≈ 0.0461 µM) | 0.05 (≈ 0.0922 µM) | > 100 | 1.56 (≈ 2.88 µM) | > 100 | 0.2 (≈ 0.369 µM) | 0.1 (≈ 0.184 µM) | 3.13 (≈ 5.77 µM) | 1.56 (≈ 2.88 µM) | MIC [21]: 0.2 µg/mL (≈ 0.369 µM); MIC [22]: 0.39 µg/mL (≈ 0.719 µM); MIC [23]: 0.1 µg/mL (≈ 0.184 µM); MIC [24]: 0.2 µg/mL (≈ 0.369 µM); MIC [25]: > 100 µg/mL
Nc1nc(/C(=N/O)C(=O)N[C@@H]2C(=O)N3C(C(=O)[O-])=C(C[n+]4ccc(-c5ncon5)cc4)CS[C@H]23)cs1 [Ex. 17, 7β-[2-(2-aminothiazol-4-yl)-2-syn-hydroxyiminoacetamido]-3-[4-(1,2,4-oxadiazol-3-yl)pyridinio]methyl-3-cephem-4-carboxylate] | 12.5 (≈ 23.7 µM) | 3.13 (≈ 5.92 µM) | 0.39 (≈ 0.738 µM) | 0.39 (≈ 0.738 µM) | 6.25 (≈ 11.8 µM) | 50 (≈ 94.6 µM) | 0.78 (≈ 1.48 µM) | 0.78 (≈ 1.48 µM) | 0.39 (≈ 0.738 µM) | 0.39 (≈ 0.738 µM) | 0.78 (≈ 1.48 µM) | 0.1 (≈ 0.189 µM) | 0.2 (≈ 0.378 µM) | > 100 | 3.13 (≈ 5.92 µM) | > 100 | 0.39 (≈ 0.738 µM) | 0.39 (≈ 0.738 µM) | 6.25 (≈ 11.8 µM) | 3.13 (≈ 5.92 µM) | MIC [21]: 0.39 µg/mL (≈ 0.738 µM); MIC [22]: 0.78 µg/mL (≈ 1.48 µM); MIC [23]: 0.2 µg/mL (≈ 0.378 µM); MIC [24]: 0.39 µg/mL (≈ 0.738 µM); MIC [25]: > 100 µg/mL
Nc1nc(/C(=N/O)C(=O)N[C@@H]2C(=O)N3C(C(=O)[O-])=C(C[n+]4ccc(-c5nnco5)cc4)CS[C@H]23)cs1 [Ex. 18, 7β-[2-(2-aminothiazol-4-yl)-2-syn-hydroxyiminoacetsmido]-3-[4-(1,3,4-oxadiazol-2-yl)pyridinio]methyl-3-cephem-4-carboxylate] | 25 (≈ 47.3 µM) | 1.56 (≈ 2.95 µM) | 0.78 (≈ 1.48 µM) | 0.39 (≈ 0.738 µM) | 50 (≈ 94.6 µM) | > 100 | 0.39 (≈ 0.738 µM) | 6.25 (≈ 11.8 µM) | 0.2 (≈ 0.378 µM) | 0.2 (≈ 0.378 µM) | 1.56 (≈ 2.95 µM) | 0.2 (≈ 0.378 µM) | 0.05 (≈ 0.0946 µM) | > 100 | 12.5 (≈ 23.7 µM) | > 100 | 0.2 (≈ 0.378 µM) | 0.2 (≈ 0.378 µM) | 25 (≈ 47.3 µM) | 12.5 (≈ 23.7 µM) | MIC [21]: 0.78 µg/mL (≈ 1.48 µM); MIC [22]: 1.56 µg/mL (≈ 2.95 µM); MIC [23]: 0.39 µg/mL (≈ 0.738 µM); MIC [24]: 0.39 µg/mL (≈ 0.738 µM); MIC [25]: > 100 µg/mL
NC(=NO)c1ccc[n+](CC2=C(C(=O)[O-])N3C(=O)[C@@H](NC(=O)/C(=N\O)c4csc(N)n4)[C@H]3SC2)c1 [Ex. 19, 7β-[2-(2-aminothiazol-4-yl)-2-syn-hydroxyiminoacetamido]-3-[3-(1-amino-1-hydroxyiminomethyl)pyridinio]methyl-3-cephem-4-carboxylate] | 6.25 (≈ 12.1 µM) | 3.18 (≈ 6.13 µM) | 0.39 (≈ 0.752 µM) | 0.39 (≈ 0.752 µM) | 3.13 (≈ 6.04 µM) | 50 (≈ 96.4 µM) | 0.39 (≈ 0.752 µM) | 0.78 (≈ 1.5 µM) | 0.39 (≈ 0.752 µM) | 0.2 (≈ 0.386 µM) | 0.78 (≈ 1.5 µM) | 0.1 (≈ 0.193 µM) | 0.2 (≈ 0.386 µM) | > 100 | 3.13 (≈ 6.04 µM) | > 100 | 0.39 (≈ 0.752 µM) | 0.39 (≈ 0.752 µM) | 6.25 (≈ 12.1 µM) | 1.56 (≈ 3.01 µM) | MIC [21]: 0.2 µg/mL (≈ 0.386 µM); MIC [22]: 0.39 µg/mL (≈ 0.752 µM); MIC [23]: 0.1 µg/mL (≈ 0.193 µM); MIC [24]: 0.2 µg/mL (≈ 0.386 µM); MIC [25]: 100 µg/mL (≈ 193 µM)

From patent publication EP0641797A1, “Cephem derivatives and antimicrobial agents containing the same” (KATAYAMA SEIYAKUSYO CO. Ltd., priority 1993, dated 1995)
